Reference: PubChem BioAssay AID1963829 (Molecular Pharmacology Branch, DTP, NCI, 2024)

Tested on: 935938-334-R-J1-PDC complex spheroid viability
Test: Anticancer human tumor 935938-334-R-J1-PDC patient-derived small intestine adenocarcinoma cell line growth inhibition [POLQ]
Details: for IC50: curve of first compound; for viability, T/C: stronger effect = lower value
Outline: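 Growth inhibition in 3D: complex spheroids (tumor PDC, HUVEC, MSC) treated with POLQ inhibitor combinations; where Cmax unknown, highest tested concentration 10 microM, except SN-38 at 1 microM.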

[1] = second compound 0.0316 µM, first compound 0.0316 µM
[2] = second compound 0.0316 µM, first compound 0.1 µM
[3] = second compound 0.0316 µM, first compound 0.316 µM
[4] = second compound 0.0316 µM, first compound 1 µM
[5] = second compound 0.0316 µM, first compound 3.16 µM
[6] = second compound 0.0316 µM, first compound 10 µM
[7] = second compound 0.1 µM, first compound 0.0316 µM
[8] = second compound 0.1 µM, first compound 0.1 µM
[9] = second compound 0.1 µM, first compound 0.316 µM
[10] = second compound 0.1 µM, first compound 1 µM
[11] = second compound 0.1 µM, first compound 3.16 µM
[12] = second compound 0.1 µM, first compound 10 µM
[13] = second compound 0.316 µM, first compound 0.0316 µM
[14] = second compound 0.316 µM, first compound 0.1 µM
[15] = second compound 0.316 µM, first compound 0.316 µM
[16] = second compound 0.316 µM, first compound 1 µM
[17] = second compound 0.316 µM, first compound 3.16 µM
[18] = second compound 0.316 µM, first compound 10 µM
[19] = second compound 1 µM, first compound 0.0316 µM
[20] = second compound 1 µM, first compound 0.1 µM
[21] = second compound 1 µM, first compound 0.316 µM
[22] = second compound 1 µM, first compound 1 µM
[23] = second compound 1 µM, first compound 3.16 µM
[24] = second compound 1 µM, first compound 10 µM
[25] = second compound 3.16 µM, first compound 0.0316 µM
[26] = second compound 3.16 µM, first compound 0.1 µM
[27] = second compound 3.16 µM, first compound 0.316 µM
[28] = second compound 3.16 µM, first compound 1 µM
[29] = second compound 3.16 µM, first compound 3.16 µM
[30] = second compound 3.16 µM, first compound 10 µM
[31] = second compound 10 µM, first compound 0.0316 µM
[32] = second compound 10 µM, first compound 0.1 µM
[33] = second compound 10 µM, first compound 0.316 µM
[34] = second compound 10 µM, first compound 1 µM
[35] = second compound 10 µM, first compound 3.16 µM
[36] = second compound 10 µM, first compound 10 µM
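Further: spheroids exposed to drugs for seven days before viability read.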
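Wherever viability, T/C is given: 100% = DMSO vehicle control wells.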

CC1COCCN1c1cc(C2(O)CC3CCC(C2)O3)c2cnn(-c3ccn[nH]3)c2n1 (stereo unspecified) + Nc1ccc(C#CCN(C(=O)Cc2ncc(C(F)(F)F)cc2C(F)(F)F)c2ccc(F)cc2)nn1
IC50 (second compound 0.0316 µM): 0.0747 µM
IC50 (second compound 0.1 µM): 0.171 µM
IC50 (second compound 0.316 µM): 0.102 µM
IC50 (second compound 1 µM): 0.157 µM
IC50 (second compound 3.16 µM): 0.125 µM
IC50 (second compound 10 µM): 0.122 µM
viability, T/C [1]: 71.3%
viability, T/C [2]: 42.2%
viability, T/C [3]: 28%
viability, T/C [4]: 19.2%
viability, T/C [5]: 15.8%
viability, T/C [6]: 12.8%
viability, T/C [7]: 83.8%
viability, T/C [8]: 62.7%
viability, T/C [9]: 35.5%
viability, T/C [10]: 18.7%
viability, T/C [11]: 15.4%
viability, T/C [12]: 12.5%
viability, T/C [13]: 107%
viability, T/C [14]: 44.9%
viability, T/C [15]: 34.7%
viability, T/C [16]: 19.6%
viability, T/C [17]: 18.1%
viability, T/C [18]: 9.14%
viability, T/C [19]: 75.9%
viability, T/C [20]: 62.8%
viability, T/C [21]: 29.9%
viability, T/C [22]: 22.5%
viability, T/C [23]: 15.3%
viability, T/C [24]: 9.68%
viability, T/C [25]: 99.3%
viability, T/C [26]: 55.3%
viability, T/C [27]: 28.2%
viability, T/C [28]: 21.3%
viability, T/C [29]: 16.1%
viability, T/C [30]: 11.8%
viability, T/C [31]: 94.7%
viability, T/C [32]: 54.4%
viability, T/C [33]: 29.5%
viability, T/C [34]: 15.7%
viability, T/C [35]: 18.7%
viability, T/C [36]: 10.8%

C#Cc1c(F)ccc2cc(O)cc(-c3ncc4c(N5CC6CCC(C5)N6)nc(OCC56CCCN5CC(F)C6)nc4c3F)c12 (stereo unspecified) + Cc1cccc(N(C)C(=O)C2C(O)CCN2c2nc(C)cc(C(F)(F)F)c2C#N)c1
IC50 (second compound 0.0316 µM): 2.41 µM
IC50 (second compound 0.1 µM): 3.39 µM
IC50 (second compound 0.316 µM): 1.49 µM
IC50 (second compound 1 µM): 1.73 µM
IC50 (second compound 3.16 µM): 2.02 µM
IC50 (second compound 10 µM): 0.576 µM
viability, T/C [1]: 89.8%
viability, T/C [2]: 97.8%
viability, T/C [3]: 65.1%
viability, T/C [4]: 75.2%
viability, T/C [5]: 40.2%
viability, T/C [6]: 29.7%
viability, T/C [7]: 80.3%
viability, T/C [8]: 75.2%
viability, T/C [9]: 62%
viability, T/C [10]: 60.9%
viability, T/C [11]: 53.4%
viability, T/C [12]: 39.4%
viability, T/C [13]: 97.5%
viability, T/C [14]: 88.9%
viability, T/C [15]: 87.6%
viability, T/C [16]: 54.6%
viability, T/C [17]: 41.9%
viability, T/C [18]: 33.4%
viability, T/C [19]: 92%
viability, T/C [20]: 75%
viability, T/C [21]: 64.3%
viability, T/C [22]: 64.8%
viability, T/C [23]: 36.5%
viability, T/C [24]: 35.5%
viability, T/C [25]: 72.5%
viability, T/C [26]: 81.1%
viability, T/C [27]: 54.4%
viability, T/C [28]: 70.7%
viability, T/C [29]: 37.3%
viability, T/C [30]: 31.8%
viability, T/C [31]: 85.4%
viability, T/C [32]: 73.7%
viability, T/C [33]: 61.5%
viability, T/C [34]: 38.6%
viability, T/C [35]: 36.6%
viability, T/C [36]: 29.6%

CC[C@@]1(O)C(=O)OCc2c1cc1n(c2=O)Cc2cc3c(CN(C)C)c(O)ccc3nc2-1 + Cc1cccc(N(C)C(=O)C2C(O)CCN2c2nc(C)cc(C(F)(F)F)c2C#N)c1
IC50 (second compound 0.0316 µM): > 0.1 µM
IC50 (second compound 0.1 µM): > 0.1 µM
IC50 (second compound 0.316 µM): > 0.1 µM
IC50 (second compound 1 µM): 0.0918 µM
IC50 (second compound 3.16 µM): > 0.1 µM
IC50 (second compound 10 µM): > 0.1 µM
viability, T/C (second compound 0.0316 µM, first compound 0.000316 µM): 123%
viability, T/C (second compound 0.0316 µM, first compound 0.001 µM): 111%
viability, T/C (second compound 0.0316 µM, first compound 0.00316 µM): 95.1%
viability, T/C (second compound 0.0316 µM, first compound 0.01 µM): 90.4%
viability, T/C [1]: 70.6%
viability, T/C [2]: 69.2%
viability, T/C (second compound 0.1 µM, first compound 0.000316 µM): 105%
viability, T/C (second compound 0.1 µM, first compound 0.001 µM): 113%
viability, T/C (second compound 0.1 µM, first compound 0.00316 µM): 109%
viability, T/C (second compound 0.1 µM, first compound 0.01 µM): 128%
viability, T/C [7]: 68.5%
viability, T/C [8]: 82.7%
viability, T/C (second compound 0.316 µM, first compound 0.000316 µM): 112%
viability, T/C (second compound 0.316 µM, first compound 0.001 µM): 102%
viability, T/C (second compound 0.316 µM, first compound 0.00316 µM): 118%
viability, T/C (second compound 0.316 µM, first compound 0.01 µM): 88%
viability, T/C [13]: 89.9%
viability, T/C [14]: 51.2%
viability, T/C (second compound 1 µM, first compound 0.000316 µM): 126%
viability, T/C (second compound 1 µM, first compound 0.001 µM): 115%
viability, T/C (second compound 1 µM, first compound 0.00316 µM): 92.9%
viability, T/C (second compound 1 µM, first compound 0.01 µM): 111%
viability, T/C [19]: 79.9%
viability, T/C [20]: 46.3%
viability, T/C (second compound 3.16 µM, first compound 0.000316 µM): 101%
viability, T/C (second compound 3.16 µM, first compound 0.001 µM): 92.9%
viability, T/C (second compound 3.16 µM, first compound 0.00316 µM): 112%
viability, T/C (second compound 3.16 µM, first compound 0.01 µM): 112%
viability, T/C [25]: 68.4%
viability, T/C [26]: 54%
viability, T/C (second compound 10 µM, first compound 0.000316 µM): 97%
viability, T/C (second compound 10 µM, first compound 0.001 µM): 95.3%
viability, T/C (second compound 10 µM, first compound 0.00316 µM): 84.7%
viability, T/C (second compound 10 µM, first compound 0.01 µM): 84.5%
viability, T/C [31]: 101%
viability, T/C [32]: 55.2%
